Measured values taken from ChEMBL document CHEMBL3352468, “Synthesis and receptor binding in trans-CD ring-fused A-CD estrogens: comparison with the cis-fused isomers” (Bioorg Med Chem Lett, 2014).

What follows are compounds tested against Estrogen receptor beta (Homo sapiens) (UniProt Q92731) (assay: Binding affinity to ERbeta (unknown origin) relative to estradiol).
Chain of Estrogen receptor beta (Homo sapiens) (Q92731 whole entry): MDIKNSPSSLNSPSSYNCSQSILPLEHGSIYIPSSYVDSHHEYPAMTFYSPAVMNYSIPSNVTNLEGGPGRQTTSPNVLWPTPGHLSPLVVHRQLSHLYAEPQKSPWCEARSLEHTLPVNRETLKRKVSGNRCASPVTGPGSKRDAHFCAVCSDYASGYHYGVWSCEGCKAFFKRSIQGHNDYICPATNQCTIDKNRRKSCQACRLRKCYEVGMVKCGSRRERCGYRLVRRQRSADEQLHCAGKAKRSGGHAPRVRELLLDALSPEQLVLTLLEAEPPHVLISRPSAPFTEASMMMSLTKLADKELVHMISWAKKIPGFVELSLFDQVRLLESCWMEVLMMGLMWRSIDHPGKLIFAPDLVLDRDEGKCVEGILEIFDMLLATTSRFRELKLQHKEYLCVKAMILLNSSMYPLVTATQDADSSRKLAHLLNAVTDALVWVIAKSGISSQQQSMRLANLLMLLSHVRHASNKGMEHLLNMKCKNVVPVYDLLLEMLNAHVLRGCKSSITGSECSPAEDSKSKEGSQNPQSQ

| Compound | relative binding affinity (RBA) |
| --- | --- |
| C[C@]12CC[C@H](c3ccc(O)cc3O)C[C@@H]1CC[C@@H]2O | 0.15 |
| C[C@]12CC[C@H](c3ccc(O)c(F)c3)C[C@@H]1CC[C@@H]2O | 6.84 |
| C[C@]12CC[C@H](c3ccc(O)cc3O)C[C@H]1CC[C@@H]2O | 3.97 |
| COc1cc(O)ccc1[C@H]1CC[C@@]2(C)[C@H](CC[C@@H]2O)C1 | 0.123 |
| C[C@]12CC=C(c3ccc(O)cc3F)C[C@@H]1CC[C@@H]2O | 38 |
| C[C@]12CC[C@H](c3cc(F)c(O)c(F)c3F)C[C@H]1CC[C@@H]2O | 1.73 |
| C[C@]12CC[C@H](c3ccc(O)cc3C(F)(F)F)C[C@@H]1CC[C@@H]2O | 4.9 |
| Cc1cc(O)ccc1[C@H]1CC[C@@]2(C)[C@@H](CC[C@@H]2O)C1 | 1.3 |
| C[C@]12CC=C(c3ccc(O)cc3F)C[C@H]1CC[C@@H]2O | 49 |
| C[C@]12CC[C@H](c3ccc(O)cc3)C[C@@H]1CC[C@@H]2O | 10 |
| C[C@]12CC=C(c3ccc(O)cc3Cl)C[C@@H]1CC[C@@H]2O | 14.1 |
| COc1cc(O)ccc1[C@H]1CC[C@@]2(C)[C@@H](CC[C@@H]2O)C1 | 0.037 |
| C[C@]12CC=C(c3cc(F)c(O)c(F)c3F)C[C@@H]1CC[C@@H]2O | 0.076 |
| Cc1c([C@H]2CC[C@@]3(C)[C@@H](CC[C@@H]3O)C2)cc(F)c(O)c1F | 0.226 |
| Cc1cc(O)ccc1[C@H]1CC[C@@]2(C)[C@H](CC[C@@H]2O)C1 | 33.6 |
| COc1cc(O)ccc1C1=CC[C@@]2(C)[C@H](CC[C@@H]2O)C1 | 0.022 |
| C[C@]12CC[C@H](c3ccc(O)c(F)c3F)C[C@H]1CC[C@@H]2O | 42.8 |

| Compound | relative binding affinity (RBA) |
| --- | --- |
| Cc1c([C@H]2CC[C@@]3(C)[C@H](CC[C@@H]3O)C2)cc(F)c(O)c1F | 5.35 |
| COc1cc(O)ccc1C1=CC[C@@]2(C)[C@@H](CC[C@@H]2O)C1 | 0.029 |
| C[C@]12CC[C@H](c3ccc(O)c(F)c3)C[C@H]1CC[C@@H]2O | 8.7 |
| C[C@]12CC=C(c3ccc(O)cc3C(F)(F)F)C[C@H]1CC[C@@H]2O | 174 |
| C[C@]12CC[C@H](c3ccc(O)cc3F)C[C@@H]1CC[C@@H]2O | 13.6 |
| C[C@]12CC[C@H](c3ccc(O)cc3)C[C@H]1CC[C@@H]2O | 21.5 |
| C[C@]12CC=C(c3cc(F)c(O)c(F)c3Cl)C[C@H]1CC[C@@H]2O | 6 |
| C[C@]12CC=C(c3ccc(O)cc3)C[C@@H]1CC[C@@H]2O | 17.3 |
| C[C@]12CC=C(c3ccc(O)c(Cl)c3Cl)C[C@H]1CC[C@@H]2O | 55 |
| C[C@]12CC=C(c3ccc(O)cc3)C[C@H]1CC[C@@H]2O | 6.8 |
| C[C@]12CC=C(c3cc(F)c(O)cc3F)C[C@H]1CC[C@@H]2O | 2.7 |
| C[C@]12CC[C@H](c3ccc(O)c(F)c3F)C[C@@H]1CC[C@@H]2O | 7.3 |
| C[C@]12CC[C@H](c3cc(F)c(O)c(F)c3F)C[C@@H]1CC[C@@H]2O | 0.097 |
| C[C@]12CC=C(c3ccc(O)c(F)c3Cl)C[C@H]1CC[C@@H]2O | 149 |
| C[C@]12CC=C(c3ccc(O)cc3Cl)C[C@H]1CC[C@@H]2O | 118 |
| C[C@]12CC[C@H](c3ccc(O)cc3F)C[C@H]1CC[C@@H]2O | 136 |

Species: Homo sapiens
Assay: Selectivity ratio of RBA for ERbeta (unknown origin) to RBA for ERalpha (unknown origin)

| Compound | Selectivity ratio |
| --- | --- |
| C[C@]12CC[C@H](c3ccc(O)cc3O)C[C@@H]1CC[C@@H]2O | 4.1 |
| C[C@]12CC[C@H](c3ccc(O)c(F)c3)C[C@@H]1CC[C@@H]2O | 4.1 |
| C[C@]12CC[C@H](c3ccc(O)cc3O)C[C@H]1CC[C@@H]2O | 15.3 |
| COc1cc(O)ccc1[C@H]1CC[C@@]2(C)[C@H](CC[C@@H]2O)C1 | 7.7 |
| C[C@]12CC=C(c3ccc(O)cc3F)C[C@@H]1CC[C@@H]2O | 1.7 |
| C[C@]12CC[C@H](c3cc(F)c(O)c(F)c3F)C[C@H]1CC[C@@H]2O | 9.3 |
| C[C@]12CC[C@H](c3ccc(O)cc3C(F)(F)F)C[C@@H]1CC[C@@H]2O | 1 |
| Cc1cc(O)ccc1[C@H]1CC[C@@]2(C)[C@@H](CC[C@@H]2O)C1 | 2.8 |
| C[C@]12CC=C(c3ccc(O)cc3F)C[C@H]1CC[C@@H]2O | 11 |
| C[C@]12CC[C@H](c3ccc(O)cc3)C[C@@H]1CC[C@@H]2O | 4.2 |
| C[C@]12CC=C(c3ccc(O)cc3Cl)C[C@@H]1CC[C@@H]2O | 1.5 |
| COc1cc(O)ccc1[C@H]1CC[C@@]2(C)[C@@H](CC[C@@H]2O)C1 | 3.7 |
| C[C@]12CC=C(c3cc(F)c(O)c(F)c3F)C[C@@H]1CC[C@@H]2O | 0.8 |
| Cc1c([C@H]2CC[C@@]3(C)[C@@H](CC[C@@H]3O)C2)cc(F)c(O)c1F | 2.8 |
| Cc1cc(O)ccc1[C@H]1CC[C@@]2(C)[C@H](CC[C@@H]2O)C1 | 11.9 |
| COc1cc(O)ccc1C1=CC[C@@]2(C)[C@H](CC[C@@H]2O)C1 | 5.5 |
| C[C@]12CC[C@H](c3ccc(O)c(F)c3F)C[C@H]1CC[C@@H]2O | 9.3 |

| Compound | Selectivity ratio |
| --- | --- |
| Cc1c([C@H]2CC[C@@]3(C)[C@H](CC[C@@H]3O)C2)cc(F)c(O)c1F | 7.1 |
| COc1cc(O)ccc1C1=CC[C@@]2(C)[C@@H](CC[C@@H]2O)C1 | 4.8 |
| C[C@]12CC[C@H](c3ccc(O)c(F)c3)C[C@H]1CC[C@@H]2O | 8.4 |
| C[C@]12CC=C(c3ccc(O)cc3C(F)(F)F)C[C@H]1CC[C@@H]2O | 1.4 |
| C[C@]12CC[C@H](c3ccc(O)cc3F)C[C@@H]1CC[C@@H]2O | 3.2 |
| C[C@]12CC[C@H](c3ccc(O)cc3)C[C@H]1CC[C@@H]2O | 14.6 |
| C[C@]12CC=C(c3cc(F)c(O)c(F)c3Cl)C[C@H]1CC[C@@H]2O | 1.8 |
| C[C@]12CC=C(c3ccc(O)cc3)C[C@@H]1CC[C@@H]2O | 4.7 |
| C[C@]12CC=C(c3ccc(O)c(Cl)c3Cl)C[C@H]1CC[C@@H]2O | 18.3 |
| C[C@]12CC=C(c3ccc(O)cc3)C[C@H]1CC[C@@H]2O | 17 |
| C[C@]12CC=C(c3cc(F)c(O)cc3F)C[C@H]1CC[C@@H]2O | 6.1 |
| C[C@]12CC[C@H](c3ccc(O)c(F)c3F)C[C@@H]1CC[C@@H]2O | 7.9 |
| C[C@]12CC[C@H](c3cc(F)c(O)c(F)c3F)C[C@@H]1CC[C@@H]2O | 3.3 |
| C[C@]12CC=C(c3ccc(O)c(F)c3Cl)C[C@H]1CC[C@@H]2O | 3 |
| C[C@]12CC=C(c3ccc(O)cc3Cl)C[C@H]1CC[C@@H]2O | 2 |
| C[C@]12CC[C@H](c3ccc(O)cc3F)C[C@H]1CC[C@@H]2O | 5 |
